Laboratory results published in article PMC8787096, “Antagonism of nicotinic acetycholinergic receptors by CN‐105, an apoE‐mimetic peptide reduces stroke‐induced excitotoxicity” (Clinical and Translational Medicine, 2022).
Where two headings read alike, the source gives them in different places. Residues, ends and D or L forms follow the SMILES beside them.

Columns and labels:
α7-nAChR [1] = target: T1, α7-nAChR (Homo sapiens, UniProt P36544); experiment: Patch clamp of ACh-induced currents, HEK293 cells stably expressing nAChR α7/RIC3; format: cell-based; settings: for %Inhibition of α7-nAChR: peptide 200 nM, relative to currents induced by 9 μM ACh
α1β1δε-nAChR = target: T2, α1β1δε-nAChR (Homo sapiens, UniProt P02708+P11230+Q04844+Q07001); experiment: Electrophysiology of oocytes injected with nAChR α, β, δ and ε cRNA; format: cell-based
T2 construct: expressed in transfected cells

in vivo [2] = settings: both, monkey, iv
Cynologous monkey = experiment: GLP acute toxicology study, iv infusion; format: in vivo
Procedure: The acute toxicology study of CN-105 was carried out at the facility of CTI Biotechnology (China) in accordance with GLP guidelines of the National Medical Product Administration (NMPA) of China. Briefly, six Cynologous (Cyn) monkeys were assigned to three dosing groups (n = 2/group, M:F= 1:1). The animals were given an iv. infusion of saline (Group 1), 25 mg/kg CN-105 (Group 2) or 100 mg/kg CN-105 (Group 3) twice a day. The infusion volume was 20mL/kg, while the infusion rate was 30min. Forty SD rats were assigned to four dosing groups (n = 10/group, M:F= 1:1) and were given an iv. injection of saline (Group 1), 15 mg/kg CN-105 (Group 2), 30 mg/kg CN-105 (Group 3) or 45 mg/kg CN-105 (Group 4) twice a day. The infusion volume was 5mL/kg, while the infusion rate was 10min. Animals were monitored for a variety of behavioral, physiological, histological and serological endpoints.

C57BL6 mice = experiment: Mortality of C57BL6 mice after a single tail vein injection; format: in vivo
in vivo [3] = settings: both, SD, rat, iv
[4] = monkey, in vivo, iv
[5] = system: SD rats, transient ischemic stroke; experiment: Transient middle cerebral artery occlusion (t-MCAO) model; format: in vivo, rat; settings: Day 8; for Infarct volume: rat t-MCAO
Procedure: Eighty-three Sprague-Dawley (SD) rats were randomly divided into six groups with both sexes as follows: 1) sham group (n=8), 2) vehicle group (n=15), 3) 0.1 mg/kg CN105 (n=15), 4) 0.2 mg/kg CN105 (n=15), 5) 0.4 mg/kg CN-105 (n=15), 6) 6mg/kg edaravone (n=15). Ischemic insult was introduced based on pre-established protocol. Briefly, rats were placed supine under anesthesia, and then the left common carotid arteries were exposed under sterile conditions. A suture was gently inserted into the internal carotid artery through the external carotid artery until the origin of the middle cerebral artery was occluded. The suture thread was removed 90 min after the ischemia, allowing restoration of the blood supply. Animals in the sham group were exposed of the left common carotid artery under anesthesia without ischemic occlusion. A single dose of CN-105 or edaravone were administered intravenously (iv.) 30min after reperfusion. The injection volume was 5mL/kg, given in 2 min. Animals in each group were euthanized at the end of the experiment. Brains were fixed in 10% formalin. The 3 mm-thick coronal brain sections were scanned and imaged to measure the percentage of viable and infarction brain tissue to calculate the percentage of cerebral infarction volume.

NMDA receptor = experiment: Glutamate-induced currents in HEK293 cells stably expressing NMDA receptor; format: cell-based
Description: (§1) Figure S5. Amperograms of CN-105's effect on GluR (AMPA-R) in primary rat hippocampal neuronal cultures (Left) and on GluN (NMDA-R) in a culture of HEK293 cells stably expressing NMDA receptor (Right).

[6] = system: rat hippocampal brain slices; experiment: EPSC recording (evoked, spontaneous, miniature) in hippocampal brain slices; format: cell-based
α4β2-nAChR = target: T3, α4β2-nAChR (Homo sapiens, UniProt P17787+P43681); experiment: Patch clamp of HEK293 cells transiently expressing nAChR α4β2; format: cell-based; settings: four-parameter logistic fit; read-out: IC50, inhibition of α4β2-nAChR
T3 construct: expressed in transfected cells; host or cells: HEK293 (transient)
Procedure: The patch clamp recording was performed on the third or fourth day after transfection based on the expression level of co-transfected GFP gene. Detailed description of the transfection procedures can be found in the Supporting information.
nAChR α4β2: HEK293 cells were seeded on poly-D-lysine-coated coverslips placed in a 24-well plate at a density of 8×10^3 cells per well. Cells were transfected with nAChR α4/nAChR β2/GFP with the ratio 2:2:1. The X-tremeGENE HP DNA (Roche) was used for transfection, and the ratio of plasmid to transfection reagent was 1 μg: 2 μL.

[7] = rat, in vivo, iv
AMPA receptor = experiment: Glutamate-induced currents of AMPA receptor in primary hippocampal neuronal cultures; format: cell-based; settings: primary rat hippocampal neuronal cultures
Procedure: Rat primary neuronal culture: Primary neuron cultures were prepared from newborn rats. A mixed culture of hippocampal, cortical and thalamic neurons was used for calcium imaging assays. For patch clamp studies, hippocampal neurons from the CA1 region were extracted. The trypsinized brain tissue was incubated at 37°C for 20 minutes before the removal of the enzyme. The cells were washed three times with PBS and suspended with fresh media before being plated on poly-D-lysine-coated coverslips. After 4 h, the media was replaced by Neurobasal+B27+L-Glu (Thermo scientific, USA). Half of the culture medium was changed after 24 h before switched to a 72-hr medium change routine.
as §1

α7-nAChR [8] = target: T1, α7-nAChR

T1 sequence (P36544 23-502): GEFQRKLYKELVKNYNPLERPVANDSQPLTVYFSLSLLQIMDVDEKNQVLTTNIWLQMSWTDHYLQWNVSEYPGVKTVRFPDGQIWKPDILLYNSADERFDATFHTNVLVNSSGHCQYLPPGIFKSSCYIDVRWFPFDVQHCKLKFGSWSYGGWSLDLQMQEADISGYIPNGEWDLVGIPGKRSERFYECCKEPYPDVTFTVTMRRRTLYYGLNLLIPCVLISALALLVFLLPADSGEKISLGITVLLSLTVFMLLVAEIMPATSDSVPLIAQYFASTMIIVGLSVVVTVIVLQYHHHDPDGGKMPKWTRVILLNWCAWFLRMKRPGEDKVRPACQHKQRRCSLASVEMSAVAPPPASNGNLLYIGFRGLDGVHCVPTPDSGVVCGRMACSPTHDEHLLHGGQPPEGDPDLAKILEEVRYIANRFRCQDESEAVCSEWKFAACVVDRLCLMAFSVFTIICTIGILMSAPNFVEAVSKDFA
T2 sequence (P02708 21-457): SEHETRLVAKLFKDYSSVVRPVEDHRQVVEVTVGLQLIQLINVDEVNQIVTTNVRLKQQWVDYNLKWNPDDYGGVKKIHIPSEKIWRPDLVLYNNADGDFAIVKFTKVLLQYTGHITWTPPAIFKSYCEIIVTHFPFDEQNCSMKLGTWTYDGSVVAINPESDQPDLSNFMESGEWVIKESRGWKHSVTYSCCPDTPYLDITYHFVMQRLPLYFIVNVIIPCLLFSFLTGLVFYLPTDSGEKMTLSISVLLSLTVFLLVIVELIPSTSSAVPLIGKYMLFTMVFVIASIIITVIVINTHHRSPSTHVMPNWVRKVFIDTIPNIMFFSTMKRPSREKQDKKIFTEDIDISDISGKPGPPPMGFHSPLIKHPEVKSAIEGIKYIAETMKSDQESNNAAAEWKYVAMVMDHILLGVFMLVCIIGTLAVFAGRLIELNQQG
T2 sequence (P11230 24-501): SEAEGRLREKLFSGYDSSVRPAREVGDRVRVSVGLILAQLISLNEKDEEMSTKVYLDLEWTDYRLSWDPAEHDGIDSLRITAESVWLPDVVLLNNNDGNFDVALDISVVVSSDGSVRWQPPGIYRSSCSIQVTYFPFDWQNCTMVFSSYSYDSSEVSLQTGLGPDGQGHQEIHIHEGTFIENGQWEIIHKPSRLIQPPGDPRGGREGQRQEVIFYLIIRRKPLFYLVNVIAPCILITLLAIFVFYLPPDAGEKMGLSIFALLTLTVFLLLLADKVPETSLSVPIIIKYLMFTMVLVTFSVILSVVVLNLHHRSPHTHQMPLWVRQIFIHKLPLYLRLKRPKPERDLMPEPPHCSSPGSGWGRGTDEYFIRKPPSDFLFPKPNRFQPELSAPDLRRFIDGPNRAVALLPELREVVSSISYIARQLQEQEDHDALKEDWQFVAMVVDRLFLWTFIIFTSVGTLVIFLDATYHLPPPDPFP
T2 sequence (Q07001 22-517): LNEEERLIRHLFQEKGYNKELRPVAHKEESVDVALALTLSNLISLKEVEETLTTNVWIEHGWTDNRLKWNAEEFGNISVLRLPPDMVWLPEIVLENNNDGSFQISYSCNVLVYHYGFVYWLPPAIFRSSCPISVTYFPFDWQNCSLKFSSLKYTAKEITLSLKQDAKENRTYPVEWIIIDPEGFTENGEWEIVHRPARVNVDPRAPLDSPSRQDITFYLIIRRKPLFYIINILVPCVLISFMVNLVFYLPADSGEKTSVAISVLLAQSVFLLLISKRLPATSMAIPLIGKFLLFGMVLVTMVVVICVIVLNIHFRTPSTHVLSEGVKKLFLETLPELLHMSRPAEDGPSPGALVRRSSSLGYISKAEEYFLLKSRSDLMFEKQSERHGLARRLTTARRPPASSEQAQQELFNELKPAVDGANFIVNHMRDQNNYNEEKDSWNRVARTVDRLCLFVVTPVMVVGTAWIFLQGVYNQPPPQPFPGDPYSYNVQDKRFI
T2 sequence (Q04844 21-493): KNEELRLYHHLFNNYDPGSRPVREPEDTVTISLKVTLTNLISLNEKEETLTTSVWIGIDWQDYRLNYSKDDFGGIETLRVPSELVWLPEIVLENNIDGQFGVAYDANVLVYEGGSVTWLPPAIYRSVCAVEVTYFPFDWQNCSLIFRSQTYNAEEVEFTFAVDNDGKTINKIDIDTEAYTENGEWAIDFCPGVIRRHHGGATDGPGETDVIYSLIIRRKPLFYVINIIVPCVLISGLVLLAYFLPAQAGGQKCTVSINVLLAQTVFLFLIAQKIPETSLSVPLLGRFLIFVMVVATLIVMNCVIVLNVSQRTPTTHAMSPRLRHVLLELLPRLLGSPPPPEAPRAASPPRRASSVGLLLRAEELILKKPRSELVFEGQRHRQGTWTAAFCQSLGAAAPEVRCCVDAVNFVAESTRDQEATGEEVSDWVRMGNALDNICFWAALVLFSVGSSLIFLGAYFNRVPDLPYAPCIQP
T3 sequence (P43681 29-627 limits assumed): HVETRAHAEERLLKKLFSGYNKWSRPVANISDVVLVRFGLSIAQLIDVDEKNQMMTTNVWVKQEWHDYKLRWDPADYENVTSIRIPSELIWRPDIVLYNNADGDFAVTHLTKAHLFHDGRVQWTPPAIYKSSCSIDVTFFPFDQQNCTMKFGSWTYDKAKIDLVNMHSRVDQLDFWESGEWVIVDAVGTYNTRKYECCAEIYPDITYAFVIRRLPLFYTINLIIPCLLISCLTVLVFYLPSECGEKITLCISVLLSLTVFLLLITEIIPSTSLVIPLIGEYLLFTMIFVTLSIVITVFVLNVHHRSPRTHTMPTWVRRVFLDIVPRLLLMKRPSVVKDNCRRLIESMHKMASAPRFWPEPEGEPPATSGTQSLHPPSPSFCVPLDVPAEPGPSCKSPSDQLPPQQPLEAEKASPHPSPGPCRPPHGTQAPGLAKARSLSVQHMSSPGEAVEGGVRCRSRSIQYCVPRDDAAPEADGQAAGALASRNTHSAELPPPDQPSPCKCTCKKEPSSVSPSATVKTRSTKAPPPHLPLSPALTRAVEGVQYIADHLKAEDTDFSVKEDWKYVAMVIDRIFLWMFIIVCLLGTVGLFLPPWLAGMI
T3 sequence (P17787 26-502): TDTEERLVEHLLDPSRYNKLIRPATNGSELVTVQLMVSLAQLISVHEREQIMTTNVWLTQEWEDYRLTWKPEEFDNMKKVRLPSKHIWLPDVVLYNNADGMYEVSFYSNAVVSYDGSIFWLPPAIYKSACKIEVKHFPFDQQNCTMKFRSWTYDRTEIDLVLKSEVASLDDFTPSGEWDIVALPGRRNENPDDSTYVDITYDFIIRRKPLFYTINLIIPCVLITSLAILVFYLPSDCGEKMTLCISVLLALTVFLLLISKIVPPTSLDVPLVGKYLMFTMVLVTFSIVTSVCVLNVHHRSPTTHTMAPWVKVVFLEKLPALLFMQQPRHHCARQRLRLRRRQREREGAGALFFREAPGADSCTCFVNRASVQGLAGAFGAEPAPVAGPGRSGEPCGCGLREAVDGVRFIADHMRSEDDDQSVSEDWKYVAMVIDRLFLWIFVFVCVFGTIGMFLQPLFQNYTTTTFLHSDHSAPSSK

CC(=O)N[C@@H](C)C(=O)N[C@@H](CO)C(=O)N[C@@H](CCCNC(=N)N)C(=O)N[C@@H](CCCNC(=N)N)C(=O)N[C@@H](CCCNC(=N)N)C(N)=O [Ac-ASRRR-NH2] (Ac-ASRRR-NH2)
%Inhibition of α7-nAChR (α7-nAChR [1]): 7.4%

CSCC[C@H](NC(C)=O)C(=O)N[C@@H](CO)C(=O)N[C@@H](CCCNC(=N)N)C(=O)N[C@@H](CCCNC(=N)N)C(=O)N[C@@H](CCCNC(=N)N)C(N)=O [Ac-MSRRR-NH2] (Ac-MSRRR-NH2)
%Inhibition of α7-nAChR (α7-nAChR [1]): 38.3%

CC(=O)N[C@@H](CCCNC(=N)N)C(=O)N[C@@H](CO)C(=O)N[C@@H](CCCCN)C(=O)N[C@@H](CCCNC(=N)N)C(=O)N[C@@H](CCCNC(=N)N)C(N)=O [Ac-RSKRR-NH2] (Ac-RSKRR-NH2)
%Inhibition of α7-nAChR (α7-nAChR [1]): 9.3%

CC(=O)N[C@H](C(=O)N[C@@H](CS)C(=O)N[C@@H](CCCNC(=N)N)C(=O)N[C@@H](CCCNC(=N)N)C(=O)N[C@@H](CCCNC(=N)N)C(N)=O)C(C)C [Ac-VCRRR-NH2] (Ac-VCRRR-NH2)
%Inhibition of α7-nAChR (α7-nAChR [1]): 5.9%

CC(=O)N[C@H](C(=O)N[C@@H](CO)C(=O)N[C@@H](CCCCN)C(=O)N[C@@H](CCCCN)C(=O)N[C@@H](CCCNC(=N)N)C(N)=O)C(C)C [Ac-VSKKR-NH2] (Ac-VSKKR-NH2)
%Inhibition of α7-nAChR (α7-nAChR [1]): 48.9%

CC(=O)N[C@H](C(=O)N[C@@H](CO)C(=O)N[C@@H](CCCNC(=N)N)C(=O)N[C@@H](CCCNC(=N)N)C(=O)N[C@@H](CCCNC(=N)N)C(N)=O)C(C)C [CN-105, Ac-VSRRR-NH2] (Ac-VSRRR-NH2)
Effect on ACh induced current (α7-nAChR [1]; 10 μM CN-105, HEK293 overexpressing α7-nAChR): strongly suppressed
IC50 (α7-nAChR [1]; four-parameter logistic fit, read-out: IC50, inhibition of α7-nAChR): 31 nM
%Inhibition of α7-nAChR (α7-nAChR [1]): 61.4%
Voltage of maximal inhibition (α7-nAChR [1]; voltage dependency, CN-105 40 nM): –80 mV
IC50 (α1β1δε-nAChR): 2100 nM
AUC(0-t) (in vivo [2]; 0.1 mg/kg): 348 ± 33.7 ng·h/mL
Cmax (in vivo [2]; 0.1 mg/kg): 320 ± 20.2 ng/mL
Tmax (in vivo [2]; 0.1 mg/kg): 30 min
Vd (in vivo [2]; 0.1 mg/kg): 0.564 ± 0.271 L/kg
clearance (in vivo [2]; 0.1 mg/kg): 4.75 mL/min/kg
half-life (in vivo [2]; 0.1 mg/kg): 82.8 ± 39.6 min
AUC(0-t) (in vivo [2]; 0.5 mg/kg): 1650 ± 209 ng·h/mL
Cmax (in vivo [2]; 0.5 mg/kg): 1500 ± 251 ng/mL
Tmax (in vivo [2]; 0.5 mg/kg): 30 min
Vd (in vivo [2]; 0.5 mg/kg): 0.642 ± 0.086 L/kg
clearance (in vivo [2]; 0.5 mg/kg): 5.12 mL/min/kg
half-life (in vivo [2]; 0.5 mg/kg): 87.6 ± 10.3 min
AUC(0-t) (in vivo [2]; 2.5 mg/kg): 8300 ± 1200 ng·h/mL
Cmax (in vivo [2]; 2.5 mg/kg): 7460 ± 1190 ng/mL
Tmax (in vivo [2]; 2.5 mg/kg): 30 min
Vd (in vivo [2]; 2.5 mg/kg): 0.691 ± 0.107 L/kg
clearance (in vivo [2]; 2.5 mg/kg): 5.08 mL/min/kg
half-life (in vivo [2]; 2.5 mg/kg): 94.8 ± 12 min
Time of gradual recovery to normal activity (about two serum clearance half-lives) (Cynologous monkey; supratherapeutic dosing): ~4 h
Symptoms after supratherapeutic dosing (Cynologous monkey; supratherapeutic iv dosing): mydriasis and ptosis
Observation after removal of isoflurane anaesthesia (C57BL6 mice; 50 mg/kg, intubated and mechanically ventilated): extended sedation
Symptoms at lethal dose (C57BL6 mice; C57BL6 mice, 25 mg/kg tail vein): spasm and respiratory suppression
Mortality under intubation and mechanical ventilation (C57BL6 mice; C57BL6 mice, 50 mg/kg, mechanical ventilation with isoflurane anaesthesia): not associated with mortality
LD80 (C57BL6 mice; C57BL6 mice, single tail vein injection, autonomous respiration): 25 mg/kg
AUC(0-t) (in vivo [3]; 0.1 mg/kg): 125 ± 14.3 ng·h/mL
C0 (in vivo [3]; 0.1 mg/kg): 560 ± 181 ng/mL
Cmax (in vivo [3]; 0.1 mg/kg): 410 ± 90.5 ng/mL
Tmax (in vivo [3]; 0.1 mg/kg): 2.3 ± 0.948 min
Vd (in vivo [3]; 0.1 mg/kg): 0.385 ± 0.0711 L/kg
clearance (in vivo [3]; 0.1 mg/kg): 13.2 mL/min/kg
half-life (in vivo [3]; 0.1 mg/kg): 20.2 ± 2.52 min
AUC(0-t) (in vivo [3]; 0.3 mg/kg): 504 ± 56.6 ng·h/mL
C0 (in vivo [3]; 0.3 mg/kg): 2250 ± 463 ng/mL
Cmax (in vivo [3]; 0.3 mg/kg): 1570 ± 211 ng/mL
Tmax (in vivo [3]; 0.3 mg/kg): 2 min
Vd (in vivo [3]; 0.3 mg/kg): 0.342 ± 0.0363 L/kg
clearance (in vivo [3]; 0.3 mg/kg): 9.8 mL/min/kg
half-life (in vivo [3]; 0.3 mg/kg): 24.3 ± 3.3 min
AUC(0-t) (in vivo [3]; 1 mg/kg): 1800 ± 192 ng·h/mL
C0 (in vivo [3]; 1 mg/kg): 7680 ± 1740 ng/mL
Cmax (in vivo [3]; 1 mg/kg): 5320 ± 906 ng/mL
Tmax (in vivo [3]; 1 mg/kg): 2 min
Vd (in vivo [3]; 1 mg/kg): 0.5 ± 0.085 L/kg
clearance (in vivo [3]; 1 mg/kg): 9.28 mL/min/kg
half-life (in vivo [3]; 1 mg/kg): 37.2 ± 3.87 min
AUC(0-t) (in vivo [3]; 3 mg/kg): 5920 ± 508 ng·h/mL
C0 (in vivo [3]; 3 mg/kg): 24000 ± 2360 ng/mL
Cmax (in vivo [3]; 3 mg/kg): 17000 ± 1400 ng/mL
Tmax (in vivo [3]; 3 mg/kg): 2 min
Vd (in vivo [3]; 3 mg/kg): 0.645 ± 0.137 L/kg
clearance (in vivo [3]; 3 mg/kg): 8.48 mL/min/kg
half-life (in vivo [3]; 3 mg/kg): 52.8 ± 10.2 min
Kel ([4]; 0.1 mg/kg): 0.566 ± 0.156 h⁻¹
Kel ([4]; 0.5 mg/kg): 0.481 ± 0.058 h⁻¹
Kel ([4]; 2.5 mg/kg): 0.445 ± 0.054 h⁻¹
Density of viable neurons (NeuN+ cells) ([5]; 1 mm2 area at infarct margin): higher
Number of β3-GABAAR+ cells at infarct margin ([5]; 1 mm2 area): unaffected
Density of α7-nAChR+ cells at infarct margin versus vehicle ([5]; primary somatosensory cortex, 1 mm2 area): higher density
Infarct volume ([5]; 0.1 to 0.4 mg/kg single iv 30 min after reperfusion): significantly reduced
Direct effect on glutamate-induced currents, NMDA receptor (NMDA receptor): did not directly inhibit
Spontaneous EPSC (sEPSC) frequency ([6]; rat hippocampal brain slice, CN-105 200 μM as printed in Figure 3 legend): attenuation
Evoked EPSC mediated by NMDA receptor versus control ([6]; rat hippocampal brain slices, holding +50 mV): significantly lower
Evoked EPSC mediated by AMPA receptor versus control ([6]; rat hippocampal brain slices, holding -70 mV): significantly lower
NMDA receptor-mediated EPSC with tetrodotoxin (mEPSC) ([6]; tetrodotoxin added to block all AP firings): no longer able to affect
IC50 (α4β2-nAChR): 500 nM
Kel ([7]; 0.1 mg/kg): 2.09 ± 0.258 h⁻¹
Kel ([7]; 0.3 mg/kg): 1.73 ± 0.203 h⁻¹
Kel ([7]; 1 mg/kg): 1.13 ± 0.106 h⁻¹
Kel ([7]; 3 mg/kg): 0.823 ± 0.204 h⁻¹
Direct effect on glutamate-induced currents, AMPA receptor (AMPA receptor): did not directly inhibit

CC1=NN(c2ccccc2)C(=O)C1 [edaravone, reference compound]
Infarct volume ([5]; edaravone 6 mg/kg single iv 30 min after reperfusion): similar

apoE130‐149 (peptide)
IC50 of inhibition of α7‐nAChR current (electrophysiology); given only as the concentration used, close to the IC50 (α7-nAChR [8]): 500 nM

B1: CN‐105 (peptide)
peptide: Ac-VSRRR-NH2
IC50 of inhibition of α7‐nAChR current (electrophysiology); given only as the concentration used, close to the IC50 (α7-nAChR [8]): 40 nM
